{
  "source": "patent US6730704B2",
  "about": "“1-(aryloxy)propionoyl-2-arylsulfonyl hydrazines, process for preparation thereof and use thereof as hypoglycemic agents” (Council of Scientific & Industrial Research, priority 2002, dated 2004)",
  "key": {"[1]": {"system": "normoglycemic rats", "assay": "Hypoglycemic activity in normal rats", "format": "in vivo", "settings": "fasted normal Wistar rats; Glibenclamide 5 mg/kg per oral; reduction vs basal glucose, measured 1-6 hr, time of value not stated", "procedure": "Hypoglycemic Activity in Normal Rats:\nWistar rats of either sex weighing 150-180 gms were fasted overnight and divided into control, standard and test groups each consisting of 6 rats. The standard drug, Glibenclamide, was administered in the dose of 5 mg/kg per oral to the rats. All test compounds were administered in the dose of 200 mg/kg per oral to the test groups. Both standard and test drugs were administered as 1% gum acacia suspension. Control group received vehicle only. Blood glucose levels were measured before drugs administration at 0 hr and at 1 hr, 2 hr, 4 hr and 6 hr after drugs administration. Percent reduction of blood glucose levels at different time intervals was calculated with reference to basal glucose levels. All the blood glucose estimations were done using GOD/POD method and were analyzed using Auto Blood Analyzer (Technicon RA-1000, Bayer Diagnostics, Ireland). The standard drug (Glibenclamide) has shown a percent inhibition of glucose 65.1 and all the test compounds (1 to 9 examples) have shown percent inhibition in range of 48.5 to 63.2 (FIG. 1)"}, "[2]": {"system": "Streptozotocin induced diabetic rats", "assay": "Hypoglycemic activity in Streptozotocin induced diabetic rats", "format": "in vivo", "settings": "Streptozotocin (50 mg/kg i.v.) diabetic Wistar rats; Glibenclamide 1 mg/kg daily for 14 days; vs reading before drug administration", "procedure": "Hypoglycemic Activity in Streptozotocin Induced Diabetic Rats:\nWistar rats of either sex weighting 150-180 gms were used in this study and were divided into control, standard and test groups each consisting of 6 rats. Basal glucose levels were taken for all rats. Diabetes was induced by administering Streptozotocin in the dose of 50 mg/kg intravenously to the rats in all the groups. After a period of 48 hrs glucose levels were again measured and rats that have shown glucose levels of 400±20 mg/dl were selected. Glibenclamide (1 mg/kg) and the test compounds (50 mg/kg) were administered as 1% gum acacia suspension daily for a period of 14 days. At the end of 14 days after the last dose, blood glucose levels were again measured and the percent reduction in blood glucose was measured for all the rats in all the groups with respect to the initial reading before drug administration."}},
  "data": [
    {"smiles": "COc1ccc(Cl)cc1C(=O)NCCc1ccc(S(=O)(=O)NC(=O)NC2CCCCC2)cc1", "note": "[Glibenclamide]", "values": [
      {"measurement": "percent inhibition of glucose", "setting": "[1]", "value": 65.1, "unit": "%"},
      {"measurement": "hypoglycemic activity expressed as percent inhibition of blood glucose levels", "setting": "[2]", "value": 68.2, "unit": "%"}
    ]}
  ]
}
